In PubChem BioAssay AID1311 (NMMLSC, 2008):
Where a SMILES comes first, the peptide text is derived from it. The star is where a group is joined. Cbz = O=C(OCc1ccccc1)*

System: Yeast Sic1MUS-GFP degradation, Cln2 overexpression, flow cytometry
Assay: degradation of ubiquitination-site mutant Sic1-GFP in yeast, confirmation, mechanism study for 26S proteasome disassembly project, flow cytometry, Cln2 overexpression, Sic1MUS mutant (AID 1311)
Settings: hits give high values

SMILES	percent GFP remaining [%]
CC(C)C[C@@H](C=O)NC(=O)[C@H](CC(C)C)NC(=O)[C@H](CC(C)C)NC(=O)OCc1ccccc1 (Cbz-Leu-Leu-Leu-aldehyde)	4.05
CC(=O)N1C(=O)C(=C2C=C(C)OC(C)=C2)c2ccccc21	2.25
